In brackets after ≈: the same amount, converted by molar mass.
Legend:
Assay type in all cases: functional
Macrophomina phaseolina = test: Antifungal activity against Macrophomina phaseolina isolate CE173 after 48 to 72 hr
Colletotrichum truncatum = test: Antifungal activity against Colletotrichum truncatum CE175 after 48 to 72 hr
Alternaria alternata = test: Antifungal activity against Alternaria alternata (CE172) after 48 to 72 hr
Fusarium equiseti = test: Antifungal activity against Fusarium equiseti (CE181) after 48 to 72 hr
Diaporthe longicolla = test: Antifungal activity against Diaporthe longicolla CE117 after 48 to 72 hr
Fusarium graminearum [1] = test: microbe, parasite or virus in culture; conditions: isolate CE171
Fusarium graminearum [2] = test: microbe, parasite or virus in culture; conditions: isolate CE135
Fusarium graminearum [3] = test: microbe, parasite or virus in culture; conditions: isolate CE170
Fusarium graminearum [4] = test: microbe, parasite or virus in culture; conditions: isolate CE169

SMILES	MIC (Macrophomina phaseolina)	MIC (Colletotrichum truncatum)	MIC (Alternaria alternata)	MIC (Fusarium equiseti)	MIC (Diaporthe longicolla)	MIC (Fusarium graminearum [1])	MIC (Fusarium graminearum [2])	MIC (Fusarium graminearum [3])	MIC (Fusarium graminearum [4])
COC(=O)Nc1nc2ccccc2[nH]1 [CARBENDAZIM]	0.25 µg/mL (≈ 1.31 µM)	0.01 µg/mL (≈ 0.0523 µM)	75 µg/mL (≈ 392 µM)	0.75 µg/mL (≈ 3.92 µM)	0.01 µg/mL (≈ 0.0523 µM)	0.4 µg/mL (≈ 2.09 µM)	0.75 µg/mL (≈ 3.92 µM)	0.75 µg/mL (≈ 3.92 µM)	–
CC(=O)N1CCN(c2ccc(OCC3COC(Cn4ccnc4)(c4ccc(Cl)cc4Cl)O3)cc2)CC1 (stereo unspecified) [KETOCONAZOLE]	50 µg/mL (≈ 94.1 µM)	1.5 µg/mL (≈ 2.82 µM)	5 µg/mL (≈ 9.41 µM)	50 µg/mL (≈ 94.1 µM)	0.5 µg/mL (≈ 0.941 µM)	40 µg/mL (≈ 75.3 µM)	40 µg/mL (≈ 75.3 µM)	40 µg/mL (≈ 75.3 µM)	40 µg/mL (≈ 75.3 µM)
CC(CCc1ccc(O)cc1)OC(=O)/C=C/c1ccc(O)c(O)c1 (stereo unspecified)	> 50 µg/mL	> 50 µg/mL	> 50 µg/mL	> 50 µg/mL	6.25 µg/mL (≈ 19 µM)	> 50 µg/mL	> 50 µg/mL	> 50 µg/mL	> 50 µg/mL
COC(=O)N(OC)c1ccccc1COc1ccn(-c2ccc(Cl)cc2)n1 [PYRACLOSTROBIN]	2.5 µg/mL (≈ 6.45 µM)	0.04 µg/mL (≈ 0.103 µM)	0.4 µg/mL (≈ 1.03 µM)	12.5 µg/mL (≈ 32.2 µM)	0.01 µg/mL (≈ 0.0258 µM)	0.05 µg/mL (≈ 0.129 µM)	1 µg/mL (≈ 2.58 µM)	0.05 µg/mL (≈ 0.129 µM)	20 µg/mL (≈ 51.6 µM)
COc1c(O)ccc(C(=O)/C=C/c2ccccc2)c1O [LARREIN]	50 µg/mL (≈ 185 µM)	6.25 µg/mL (≈ 23.1 µM)	25 µg/mL (≈ 92.5 µM)	25 µg/mL (≈ 92.5 µM)	6.25 µg/mL (≈ 23.1 µM)	12.5 µg/mL (≈ 46.2 µM)	12.5 µg/mL (≈ 46.2 µM)	25 µg/mL (≈ 92.5 µM)	12.5 µg/mL (≈ 46.2 µM)
CC(CCc1ccc(O)c(O)c1)OC(=O)/C=C/c1ccc(O)c(O)c1 (stereo unspecified)	> 50 µg/mL	> 50 µg/mL	> 50 µg/mL	> 50 µg/mL	> 50 µg/mL	> 50 µg/mL	> 50 µg/mL	> 50 µg/mL	> 50 µg/mL
CO/C=C(/C(=O)OC)c1ccccc1Oc1cc(Oc2ccccc2C#N)ncn1 [AZOXYSTROBIN]	2.5 µg/mL (≈ 6.2 µM)	0.05 µg/mL (≈ 0.124 µM)	2.5 µg/mL (≈ 6.2 µM)	12.5 µg/mL (≈ 31 µM)	0.05 µg/mL (≈ 0.124 µM)	0.4 µg/mL (≈ 0.992 µM)	5 µg/mL (≈ 12.4 µM)	0.25 µg/mL (≈ 0.62 µM)	7.5 µg/mL (≈ 18.6 µM)
O=C(/C=C/c1ccccc1)c1ccc(O)cc1O [2',4'-DIHYDROXYCHALCONE]	50 µg/mL (≈ 208 µM)	6.25 µg/mL (≈ 26 µM)	25 µg/mL (≈ 104 µM)	25 µg/mL (≈ 104 µM)	3.12 µg/mL (≈ 13 µM)	25 µg/mL (≈ 104 µM)	25 µg/mL (≈ 104 µM)	25 µg/mL (≈ 104 µM)	25 µg/mL (≈ 104 µM)

— ChEMBL document CHEMBL3046626, “Antifungal chalcones and new caffeic acid esters from Zuccagnia punctata acting against soybean infecting fungi” (2004)
